The results in this text go back to paper PMC4757070, “Involvement of a Novel Class C Beta-Lactamase in the Transglutaminase Mediated Cross-Linking Cascade of Streptomyces mobaraensis DSM 40847” (PLoS ONE, 2016).

One may read the Ki as a dissociation constant, usually derived from enzyme kinetics or from competition with a known ligand. A lower Ki goes with tighter binding.

Test [1] addresses T1, beta-lactamase Sml-1 (rSml-1).
T1 construct: recombinant Sml-1 produced in E. coli BL21(DE3) RIL with pelB leader and C-terminal Gly-Leu-Glu-(His)6
The test can be described thus: inhibition of nitrocefin hydrolysis at […] nm; Ki from IC50 ([…]) by Cheng-Prusoff. The class given is biochemical.

Test [2] has the same target. The description is as above. The class given is biochemical, Streptomyces mobaraensis.

Read-outs that look alike come from different tables or passages of the source.

`CC1(C)S[C@@H]2[C@H](NC(=O)[C@H](N)c3ccccc3)C(=O)N2[C@H]1C(=O)O` [ampicillin] had a Ki in test [1] of 180 µM. Consider `CC1(C)S[C@@H]2[C@H](NC(=O)Cc3ccccc3)C(=O)N2[C@H]1C(=O)O` [penicillin G], for which, in test [2], the inhibitory constant (Ki) came to 100 µM.
